The subject of test [1] is OE33. Kind of test: Antiproliferative activity against human OE33 cells assessed as reduction in cell viability at 0.003 to 30 uM measured after 5 days by PrestoBlue reagent based fluorescence analysis. The format is functional. The note with it: dose 0.003-30 µM, time 5.0 day.
Another test deals with FLO-1. Kind of test: Antiproliferative activity against human FLO-1 cells assessed as reduction in cell viability at 0.003 to 30 uM measured after 5 days by PrestoBlue reagent based fluorescence analysis. The format is functional. The note with it: dose 0.003-30 µM, time 5.0 day.
Test [2] concerns OE33. Kind of test: cells. The note with it: Homo sapiens, OE33, 120 h.
Description: Antiproliferative activity against human OE33 cells assessed as reduction in cell viability measured after 5 days by PrestoBlue reagent based fluorescence analysis
Test [3] can be described thus: cells. The settings on record: Homo sapiens, FLO-1, 120 h.
Description: Antiproliferative activity against human FLO-1 cells assessed as reduction in cell viability measured after 5 days by PrestoBlue reagent based fluorescence analysis
The target of the next test is T1, Aurora kinase A (Homo sapiens, UniProt O14965).
T1 sequence (O14965 whole entry): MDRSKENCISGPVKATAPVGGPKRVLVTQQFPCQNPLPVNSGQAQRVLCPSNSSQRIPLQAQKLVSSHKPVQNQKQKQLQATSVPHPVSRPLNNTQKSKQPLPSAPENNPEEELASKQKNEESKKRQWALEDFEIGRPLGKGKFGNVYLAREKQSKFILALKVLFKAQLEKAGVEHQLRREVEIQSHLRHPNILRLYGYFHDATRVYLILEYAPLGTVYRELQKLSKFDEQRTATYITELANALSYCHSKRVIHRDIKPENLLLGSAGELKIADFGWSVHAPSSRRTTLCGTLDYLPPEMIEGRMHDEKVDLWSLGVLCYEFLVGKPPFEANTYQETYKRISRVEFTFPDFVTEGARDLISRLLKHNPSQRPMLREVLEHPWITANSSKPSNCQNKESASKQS
Kind of test: Inhibition of recombinant AuroraA (unknown origin).

The next test has as its system SKGT4. Kind of test: Antiproliferative activity against human SKGT4 cells assessed as reduction in cell viability at 0.003 to 30 uM measured after 5 days by PrestoBlue reagent based fluorescence analysis. The note with it: dose 0.003-30 µM, time 5.0 day. Format: functional.
A further test has as its system OACp4C. Kind of test: Antiproliferative activity against human OACp4C cells assessed as reduction in cell viability at 0.003 to 30 uM measured after 5 days by PrestoBlue reagent based fluorescence analysis. The settings on record: dose 0.003-30 µM, time 5.0 day. The format is functional.
In another test the test system is MFD-1. Kind of test: Antiproliferative activity against human MFD-1 cells assessed as reduction in cell viability at 0.003 to 30 uM measured after 5 days by PrestoBlue reagent based fluorescence analysis. The format is functional. The note with it: dose 0.003-30 µM, time 5.0 day.
The test system of the next test is JH-EsoAd1. Kind of test: Antiproliferative activity against human JH-EsoAd1 cells assessed as reduction in cell viability at 0.003 to 30 uM measured after 5 days by PrestoBlue reagent based fluorescence analysis. The note with it: dose 0.003-30 µM, time 5.0 day. Format: functional.
The subject of a further test is CP-A. Kind of test: Antiproliferative activity against human CP-A cells assessed as reduction in cell viability at 0.003 to 30 uM measured after 5 days by PrestoBlue reagent based fluorescence analysis. The note with it: dose 0.003-30 µM, time 5.0 day. Format: functional.
A further test concerns EPC-2. Kind of test: Antiproliferative activity against human EPC-2 cells assessed as reduction in cell viability at 0.003 to 30 uM measured after 5 days by PrestoBlue reagent based fluorescence analysis. The format is functional. The settings on record: dose 0.003-30 µM, time 5.0 day.
Test [4] can be described thus: cells. The settings on record: Homo sapiens, MFD-1, 120 h.
Description: Antiproliferative activity against human MFD-1 cells assessed as reduction in cell viability measured after 5 days by PrestoBlue reagent based fluorescence analysis
Test [5] can be described thus: cells. The note with it: Homo sapiens, SKGT4, 120 h.
Description: Antiproliferative activity against human SKGT4 cells assessed as reduction in cell viability measured after 5 days by PrestoBlue reagent based fluorescence analysis

46 compounds from ChEMBL document CHEMBL6134771, “Ligand-centred phenotype-driven development of potent kinase inhibitors against oesophageal cancer” (RSC Med Chem, 2025) can be followed below.

Activity calls are given as the source filed them. The calls are words filed in the database; no cut-off is given here.

Take `CNc1ncc2c(/C=C/C(=O)N3CCC(OC)CC3)nn(Cc3ccc(C(F)(F)F)cc3)c2n1`: the Activity entry with OE33 [1] and in the test with FLO-1 was “Active; Partial Restoration Of Antiproliferative Activity Observed” throughout.
`CNc1ncc2c(/C=C/C(=O)N3CCC(OC)CC3)nn(C(C)C)c2n1`: the result in the test with OE33 [1] and in the test with FLO-1 was inactive.
As for `Nc1ncnc2c1c(/C=C/C(=O)O)nn2CC1CCCC1`, the result in the test on OE33 [1] and with FLO-1 was inactive.
For the compound `COC(=O)/C=C/c1nn(CC2CCCC2)c2ncnc(N)c12`, the outcome in the test on OE33 [1] and in the test with FLO-1 was inactive.
As for `CNc1ncc2c(/C=C/C(=O)N3CCC(OC)CC3)nn(CCC(C)C)c2n1`, the outcome with OE33 [1] and with FLO-1 was inactive.
As usually defined, the EC50 is the concentration giving half of the maximal effect. Low readings indicate higher potency in that assay, high ones lower potency in that assay. With `CNc1ncc2c(/C=C/C(=O)N3CCC(OC)CC3)nn(CC3CCCC3)c2n1`, the outcome in the test with FLO-1 was Active. Also, the EC50 with OE33 [2] and in “cells [3]” was below 9000 nM each time.
For `CNc1ncc2c(/C=C/C(=O)N3CCC(OC)CC3)nn(Cc3ccccc3C(F)(F)F)c2n1`, the result with OE33 [1] and in the test on FLO-1 was inactive.
In the case of `CNc1ncc2c(/C=C/C(=O)O)nn(CC3CCCC3)c2n1`, the outcome with OE33 [1] and in the test on FLO-1 was inactive.
For the compound `CNc1ncc2c(/C=C/C(=O)N3CCC(OC)CC3)nn(CC(OC)OC)c2n1`, the result in the test on OE33 [1] and with FLO-1 was inactive.
`CNc1ncc2c(/C=C/C(=O)N3CCC(CCO)CC3)nn(CC3CCCC3)c2n1`: the result in the test on FLO-1 was Active.
Regarding `CCOC1CCN(C(=O)/C=C/c2nn(Cc3cccc(C)c3)c3nc(NC)ncc23)CC1`, the outcome with OE33 [1] and in the test on FLO-1 was inactive.
As to `CN(C)C1CCCN(C(=O)/C=C/c2nn(CC3CCCC3)c3ncnc(N)c23)C1` (stereo not given), the result in the test with OE33 [1] and with FLO-1 was inactive.
As for `CNc1ncc2c(/C=C/C(=O)N3CCC(OC)CC3)nn(CC3OCCO3)c2n1`, the result in the test on OE33 [1] and in the test with FLO-1 was inactive.
For the compound `CNc1ncc2c(/C=C/C(=O)N3CCOCC3)nn(CC3CCCC3)c2n1`, the result with FLO-1 was Active.
On to `CNc1ncc2c(/C=C/C(=O)N3CCCC(OC)C3)nn(Cc3cccc(C)c3)c2n1` (stereo not given), for which the outcome in the test on OE33 [1] and in the test with FLO-1 was inactive.
On to `CNc1ncc2c(/C=C/C(=O)N3CCC(OC)CC3)nn(Cc3ccc(OC)cc3)c2n1`, for which the Activity entry in the test with OE33 [1] and with FLO-1 was “Active; Partial Restoration Of Antiproliferative Activity Observed” each time.
Consider `CNc1ncc2c(/C=C/C(=O)N3CCCC(N(C)C)C3)nn(CC3CCCC3)c2n1` (stereo not given), for which the outcome in the test on FLO-1 was Active.
With `Nc1ncnc2c1c(/C=C/C(=O)N1CCC(O)CC1)nn2CC1CCCC1`, the result in the test on OE33 [1] and with FLO-1 was inactive.
As a reminder, the IC50 is the concentration that gives 50% inhibition. In the case of `CNc1ncc2c(/C=C/C(=O)N3CCC(OC)CC3)nn(Cc3cccc(C(F)(F)F)c3)c2n1`, on Aurora kinase A, the IC50 stood at 1450 nM.
On to `Nc1ncnc2c1c(/C=C/C(=O)N1CCC(CCO)CC1)nn2CC1CCCC1`, for which the outcome in the test with OE33 [1] and in the test with FLO-1 was inactive.
Take `CNc1ncc2c(/C=C/C(=O)N3CCC(OC)CC3)nn(Cc3ccccc3OC)c2n1`: the result in the test on OE33 [1] and in the test with FLO-1 was inactive.
As for `CNc1ncc2c(/C=C/C(=O)N3CCC(OC)CC3)nn(Cc3cccc(OC)c3)c2n1`, the outcome in the test on OE33 [1] and in the test with FLO-1 was Active.
Consider `Nc1ncnc2c1c(/C=C/C(=O)N1CCOCC1)nn2CC1CCCC1`, for which the outcome in the test on OE33 [1] and in the test on FLO-1 was inactive.
Take `Nc1ncnc2c1c(/C=C/C(=O)N1CCCC1)nn2CC1CCCC1`: the EC50 with OE33 [2] and in “cells [3]” was around 30000 nM throughout.
Turning to `CNc1ncc2c(/C=C/C(=O)N3CCC4(CC3)OCCO4)nn(Cc3cccc(C)c3)c2n1`, the result with OE33 [1] and in the test on FLO-1 was Active. Also, the values for the concentration giving a half-maximal response (EC50) in the test on OE33 [2] and in “cells [3]” were 830 nM and 1240 nM, respectively.
Take `CNc1ncc2c(/C=C/C(=O)N3CCC4(CC3)OCCO4)nn(Cc3cccc(C(F)(F)F)c3)c2n1`: the outcome with SKGT4, in the test on OACp4C, in the test on MFD-1, in the test on JH-EsoAd1, in the test on CP-A and with EPC-2 was Active. In addition, the EC50 was found to be 560 nM in the test with OE33 [2], 700 nM in the test “cells [3]”, 920 nM in the test “cells [4]” and 2900 nM in the test “cells [5]”.
With `Nc1ncnc2c1c(/C=C/C(=O)N1CCC(c3ccccc3)CC1)nn2CC1CCCC1`, the EC50 in the test on OE33 [2] and in the test “cells [3]” was around 30000 nM in each case.
Turning to `CC1CCN(C(=O)/C=C/c2nn(CC3CCCC3)c3ncnc(N)c23)CC1`, the result in the test on OE33 [1] and in the test on FLO-1 was inactive.
In the case of `CCOC(Cn1nc(/C=C/C(=O)N2CCC(OC)CC2)c2cnc(NC)nc21)OCC`, the outcome with OE33 [1] and with FLO-1 was inactive.
In the case of `CNc1ncc2c(/C=C/C(=O)N3CCC(c4ccccc4)CC3)nn(CC3CCCC3)c2n1`, the result with FLO-1 was Active.
For `CNc1ncc2c(/C=C/C(=O)N3CCC(OC)CC3)nn(CC3CCCO3)c2n1` (stereo not given), the outcome in the test with OE33 [1] and with FLO-1 was inactive.
For `CNc1ncc2c(/C=C/C(=O)N3CCCC3)nn(CC3CCCC3)c2n1`, the outcome in the test on FLO-1 was Active.
Turning to `CNc1ncc2c(/C=C/C(=O)N3CCC(COC)CC3)nn(Cc3cccc(C)c3)c2n1`, the result in the test on OE33 [1] and in the test with FLO-1 was inactive.
Consider `CNc1ncc2c(/C=C/C(=O)N3CCC(OC)CC3)nn(CC3CCCCC3)c2n1`, for which the outcome with OE33 [1] and with FLO-1 was Active.
For `CNc1ncc2c(/C=C/C(=O)N3CCC(OC)CC3)nn(Cc3ccccc3)c2n1`, the outcome with OE33 [1] and with FLO-1 was Active.
For the compound `CNc1ncc2c(/C=C/C(=O)N3CCC(C)CC3)nn(CC3CCCC3)c2n1`, in the test on FLO-1, the outcome was Active.
As for `CNc1ncc2c(/C=C/C(=O)N3CCCCC3)nn(CC3CCCC3)c2n1`, the result with FLO-1 was Active.
For the compound `CN(C)C1CCN(C(=O)/C=C/c2nn(CC3CCCC3)c3ncnc(N)c23)CC1`, the outcome in the test with OE33 [1] and in the test with FLO-1 was inactive.
In the case of `CNc1ncc2c(/C=C/C(=O)N3CCC(OC)CC3)nn(Cc3ccc(C)cc3)c2n1`, the Activity result with OE33 [1] and with FLO-1 was “Active; Partial Restoration Of Antiproliferative Activity Observed” each time.
Consider `CNc1ncc2c(/C=C/C(=O)N3CCC(O)CC3)nn(CC3CCCC3)c2n1`, for which the outcome in the test on FLO-1 was Active.
With `CNc1ncc2c(/C=C/C(=O)N3CCC(OC)CC3)nn(Cc3cccc(C)c3)c2n1`, the result with OE33 [1] and in the test on FLO-1 was Active. Moreover, the EC50 is 1800 nM in the test on OE33 [2] and 2500 nM in the test “cells [3]”.
Consider `COC1CCN(C(=O)/C=C/c2nn(CC3CCCC3)c3ncnc(N)c23)CC1`, for which the result in the test on OE33 [1] and with FLO-1 was inactive.
For `CNc1ncc2c(/C=C/C(=O)N3CCC(OC)CC3)nn(CC(C)(C)C)c2n1`, the result with OE33 [1] and with FLO-1 was inactive.
Regarding `CNc1ncc2c(/C=C/C(=O)N3CCC(OC)CC3)nn(Cc3ccccc3C)c2n1`, the outcome in the test with OE33 [1] and in the test on FLO-1 was inactive.
With `Nc1ncnc2c1c(/C=C/C(=O)N1CCCCC1)nn2CC1CCCC1`, the result in the test on OE33 [1] and in the test on FLO-1 was inactive.
Regarding `CNc1ncc2c(/C=C/C(=O)N3CCC(N(C)C)CC3)nn(CC3CCCC3)c2n1`, the outcome in the test with FLO-1 was Active.
